Reference: patent publication US8735152B2, “Methods for inducing cell death in pluripotent stem cells and differentiated cells other than cardiac myocytes” (Daiichi Sankyo Company, Limited, priority 2009, dated 2014)

Key:
[1] = test system: cardiomyocyte containing mouse embryoid bodies; experiment: Low-concentration mannitol treatment of cardiomyocyte containing mouse embryoid bodies; assay type: cell-based; conditions: 0.2 M, 72 hours
Procedure: Additionally, similar to the method described in Example 1, 75 mouse embryonic stem cells per EB were cultured as cell masses for a total of 7 days by the hanging-drop technique using a culture medium [α-MEM (minimum essential medium) (SIGMA), supplemented with 10% FBS (EQUITEC BIO), 100 units/ml penicillin, and 50 μg/ml streptomycin (GIBCO)], whereby the stem cells were differentiated into cell masses containing cardiomyocytes; thereafter, the embryoid bodies were adhered to the culture dish and cultured for another 3-5 days under the conditions of 37° C. and 5% CO2.

[2] = test system: human embryonic stem cell-derived embryoid bodies; experiment: Cell death inducing effect on residual stem cells in human embryonic stem cell-derived embryoid bodies and enrichment of cardiomyocytes; assay type: cell-based; conditions: 0.45 M, 2 hours
Procedure: After passaging, human embryonic stem cells were subjected to suspension culture in a culture medium [α-MEM (minimum essential medium) (SIGMA), supplemented with 10% FBS (EQUITEC BIO), 100 units/ml penicillin, and 50 μg/ml streptomycin (GIBCO)] to induce formation of embryoid bodies. At 14-18 days after the start of differentiation (the start of suspension culture), autonomously pulsating cells started to differentiate, which was confirmed in a separate step that they were cardiomyocytes.
The embryoid bodies still maintained an autonomously pulsating ability after the passage of 3 months from the start of differentiation. They were partially treated with 0.1% collagenase (Wortington) and 0.1% trypsin (DIFCO) to be dispersed as fine cell masses. The cell masses were divided into two groups; one group was treated with 0.45 M mannitol (approximately equivalent to 720 mOsm/kg) for 2 hours, and the other group (control) was not treated with mannitol but treated with the same amount of a solution having the physiological osmotic pressure, Ads buffer (116.4 mM NaCl, 5.4 mM KCl, 5.6 mM dextrose, 10.9 mM NaH2PO4, 405.7 μM MgSO4, 20 mM Hepes, pH 7.3) for 2 hours. After the treatment, both cell groups were subjected to adherent culture for 3 days in a DMEM solution supplemented with 10% fetal calf serum.
The mannitol-treated cells and the control cells were analyzed in accordance with the experimental procedure of Example 1 using a mouse anti-Oct-3/4 monoclonal antibody (No. 084720 of BD Transduction Laboratories) and a goat anti-Nkx 2.5 antibody (No. N-19 of Santacruz) as primary antibodies, for the expression of the Oct-3/4 protein which was both a marker of embryonic stem cells and an intranuclear transcription factor, and for the expression of the Nkx 2.5 protein which was both a cardiomyocyte marker and an intranuclear transcription factor, respectively. The results for the control group, one of the two divided samples, are shown in FIG. 10 and the results for the test group subjected to 2-hr treatment with mannitol are shown in FIG. 11. The upper panels of FIG. 10 show the results of cardiomyocytes and the lower panels show the results of embryonic stem cells.
The embryoid bodies still maintained an autonomously pulsating ability after the passage of 3 months from the start of differentiation. They were partially treated with 0.1% collagenase (Wortington) and 0.1% trypsin (DIFCO) to be dispersed as fine cell masses. The cell masses were divided into two groups; one group was treated with saccharides (sugar alcohols: sorbitol, xylitol, and glycerol; sugars: sucrose and glucose; betaines: trimethylglycine) for 12 hours in an amount of 0.45 M (approximately equivalent to 700-780 mOsm/kg) or 0.6 M (approximately equivalent to 850-1000 mOsm/kg), and the other group (control) was not treated with those saccharides but treated with the same amount of a solution having the physiological osmotic pressure, Ads buffer (116.4 mM NaCl, 5.4 mM KCl, 5.6 mM dextrose, 10.9 mM NaH2PO4, 405.7 μM MgSO4, 20 mM Hepes, pH 7.3) for 2 hours. After the treatment, both cell groups were cultured for 12 hours in a DMEM solution supplemented with 10% fetal calf serum.
Samples of differentiated cells derived from human embryonic stem cells, as treated with 0.45 M glycerol (approximately equivalent to 710 mOsm/kg) or 0.6 M glycerol (approximately equivalent to 870 mOsm/kg), were examined for their morphology under the culture conditions. […] The cell death inducing effect was noticeable when the cells were exposed to glycerol for 10 hours and longer (FIG. 14).

[3] = Saccharide concentration and osmotic pressure of hypertonic solutions (measured values); assay type: physicochemical
Procedure: When the hypertonic solution having an osmotic pressure of 370 mOsm/kg or higher is prepared by adding a saccharide to the culture medium, the method of the present invention is characterized in that the hypertonic solution contains the saccharide in 0.1-1 M (mol/L), preferably 0.1-0.6 M (mol/L). The relation between the concentration of saccharide (mol/L) and the osmotic pressure (mOsm/kg) can be approximated by a substantially straight line; a hypertonic solution containing 0.1 M saccharide corresponds to one having an osmotic pressure of approximately 370 mOsm/kg and a hypertonic solution containing 1 M saccharide corresponds to one having an osmotic pressure of approximately 1300-1600 mOsm/kg.
Hypertonic solutions were prepared using various saccharides and the relation between the saccharide concentration and the osmotic pressure is shown in the following table for typical saccharides.

[4] = test system: human induced pluripotent stem cells (iPS cells); experiment: Cell death inducing effect on human induced pluripotent stem cells (TMRM, FACS); assay type: cell-based; conditions: 0.45 M, 2 hours
Procedure: The human iPS cells were obtained from Stem Cell Research Center, Institute for Frontier Medical Sciences, Kyoto University (ES cell center sponsored by the National Bio-Resource Project). The cells were cultured basically in accordance with the same method as that in the case of human embryonic stem cells, i.e., in accordance with the same method as described in Example 5. After passaging, the cells were dispersed with each other using TE (0.25% trypsin (GIBCO) and 1 mM EDTA) and in accordance with a published document (Watanabe, K. et al., Nat. Biotechnol., 2007, 25: 681-686, Epub 2007 May 27), 10 μM of a ROCK inhibitor (Y27632) was added to suppress cell death. At the same time, the mitochondria in the live cells were stained with 50 nM TMRM. […] In the control, cells were aggregated with each other to make masses, so before FACS analysis, both samples were given another treatment with trypsin and EDTA to disperse the cells; thereafter, the samples were analyzed by FACS for the level of mitochondrial membrane potential on the basis of the fluorescent intensity of TMRM to check the state of survival of the stem cells; the results are shown in FIG. 12. […]

[5] = one week after the treatment, immunohistochemical technique

OC[C@@H](O)[C@@H](O)[C@H](O)[C@H](O)CO [mannitol]
State of cells other than cardiomyocytes and of cardiomyocytes [1]: almost all cells other than cardiomyocytes had died and only the cardiomyocytes survived selectively | Toxicity in cardiomyocytes [2]: does not show significant toxicity in cardiomyocytes | Autonomously pulsating cells ([2]; then 3 days adherent culture): autonomously pulsating cell populations and autonomously pulsating single cells were found adherent to or suspended in the culture dish | Colonies of cells assumed to be undifferentiated cells ([2]; then 3 days adherent culture): no such cell populations were found at all | Type of surviving cells (Nkx 2.5) [2, 5]: a great majority of the surviving cells were Nkx 2.5 positive cardiomyocytes | Type of surviving cells (Oct-3/4) [2, 5]: Oct-3/3 negative cells were hardly detectable | Osmotic pressure ([3]; saccharide concentration 0.2 M in culture medium): ~480 mOsm/kg | Osmotic pressure ([3]; saccharide concentration 0.45 M in culture medium): ~720 mOsm/kg | Osmotic pressure ([3]; saccharide concentration 0.45 M in culture medium, listed as Mannitol): 717 mOsm/kg | Osmotic pressure ([3]; saccharide concentration 0.6 M in culture medium): 875 mOsm/kg | Osmotic pressure ([3]; saccharide concentration 0.9 M in culture medium): 1234 mOsm/kg | Mitochondrial membrane potential (TMRM fluorescence, FACS) [4]: almost all of the cells treated with mannitol for 2 hours had lost membrane potential
